Data reported in patent US20210355138A1, “AMINOTHIAZINIES AND THEIR USE AS BACE1 INHIBITORS” (Eli Lilly and Company, priority 2016, published 2021).
Where two headings read alike, the source gives them in different places.

Assays:
[1] = target: T1, Human BACE1(1-460):Fc (Homo sapiens, UniProt P56817); test: BACE1 FRET Assay; format: biochemical; details: purified recombinant huBACE1:Fc, FRET substrate based on APP sequence, pH 4.6; mean ± standard deviation of the mean (0.035), n=5
T1 construct: made in house; host or cells: HEK293 (transient transfection, conditioned medium)
T1 sequence (P56817 22-460): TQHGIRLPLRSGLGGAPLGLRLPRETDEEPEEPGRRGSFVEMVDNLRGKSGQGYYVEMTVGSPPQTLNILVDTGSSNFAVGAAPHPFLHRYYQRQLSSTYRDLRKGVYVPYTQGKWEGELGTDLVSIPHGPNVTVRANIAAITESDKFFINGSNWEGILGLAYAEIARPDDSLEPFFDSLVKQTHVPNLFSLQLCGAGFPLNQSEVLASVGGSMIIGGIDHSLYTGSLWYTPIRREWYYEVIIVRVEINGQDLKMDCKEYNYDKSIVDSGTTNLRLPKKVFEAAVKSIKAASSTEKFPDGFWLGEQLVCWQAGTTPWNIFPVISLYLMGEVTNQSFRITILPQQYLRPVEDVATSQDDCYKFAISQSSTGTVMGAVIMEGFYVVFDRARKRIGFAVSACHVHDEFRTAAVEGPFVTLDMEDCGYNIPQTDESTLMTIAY
Experimental: (§1) To assess selectivity of BACE1 over BACE2, the test compound is evaluated in FRET assays using specific substrates for BACE1 and BACE2 as described below. For in vitro enzymatic and cellular assays, the test compound is prepared in DMSO to make up a 10 mM stock solution. The stock solution is serially diluted in DMSO to obtain a ten-point dilution curve with final compound concentrations ranging from 10 μM to 0.05 nM in a 96-well round-bottom plate before conducting the in vitro enzymatic and whole cell assays.
Human BACE1 (accession number: AF190725) and human BACE2 (accession number: AF 204944) are cloned from total brain cDNA by RT-PCR. The nucleotide sequences corresponding to amino acid sequences #1 to 460 are inserted into the cDNA encoding human IgG1 (Fc) polypeptide (Vassar et al., Science, 286, 735-742 (1999)). […]
Conditioned media of HEK293 cells transiently transfected with huBACE1:Fc or huBACE2:Fc cDNA are collected. […] The purity of the final product is assessed by electrophoresis in 4-20% Tris-Glycine SDS-PAGE. […]
Serial dilutions of the test compound are prepared as described above. […] The RFU of the mixture at time 0 is recorded at excitation wavelength 355 nm and emission wavelength 460 nm, after brief mixing on a plate shaker. […] The RFU at the end of incubation is recorded with the same excitation and emission settings used at time 0. […]

[2] = target: T2, BACE1 (Homo sapiens, UniProt P56817); test: SH-SY5YAPP695Wt Whole Cell Assay (Abeta ELISA); format: cell-based; details: SH-SY5Y cells stably expressing human APP695Wt, 24 hours incubation, n=6
T2 construct: endogenous in cells; host or cells: SH-SY5Y (ATCC CRL2266) stably expressing human APP695Wt
T2 sequence (P56817 46-501): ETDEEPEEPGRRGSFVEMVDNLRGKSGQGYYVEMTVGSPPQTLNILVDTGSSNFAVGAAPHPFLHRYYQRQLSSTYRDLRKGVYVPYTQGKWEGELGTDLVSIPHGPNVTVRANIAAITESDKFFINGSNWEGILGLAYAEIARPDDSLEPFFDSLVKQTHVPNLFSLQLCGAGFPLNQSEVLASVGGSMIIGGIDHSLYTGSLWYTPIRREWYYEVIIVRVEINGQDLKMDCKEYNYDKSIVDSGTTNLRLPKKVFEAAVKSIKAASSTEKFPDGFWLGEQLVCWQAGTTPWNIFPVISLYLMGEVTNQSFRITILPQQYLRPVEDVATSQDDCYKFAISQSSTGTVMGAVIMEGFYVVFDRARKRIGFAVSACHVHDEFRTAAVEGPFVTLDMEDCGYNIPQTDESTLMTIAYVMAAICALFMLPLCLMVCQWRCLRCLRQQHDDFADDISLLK
Experimental: as §1
The routine whole cell assay for the measurement of inhibition of BACE1 activity utilizes the human neuroblastoma cell line SH-SY5Y (ATCC Accession No. CRL2266) stably expressing a human APP695Wt cDNA. Cells are routinely used up to passage number 6 and then discarded.
SH-SY5YAPP695Wt cells are plated in 96 well tissue culture plates at 5.0×10^4 cells/well in 200 μL culture media (50% MEM/EBSS and Ham's F12, 1× each sodium pyruvate, non-essential amino acids and NaHCO3 containing 10% FBS). The following day, media is removed from the cells, fresh media added then incubated at 37° C. for 24 hours in the presence/absence of test compound at the desired concentration range.
At the end of the incubation, conditioned media are analyzed for evidence of beta-secretase activity by analysis of Abeta peptides 1-40 and 1-42 by specific sandwich ELISAs. […]

Compound: CC(F)(F)[C@H]1C[C@H]2CSC(N)=N[C@@]2(c2cc(NC(=O)c3ccc(C#N)cn3)ccc2F)CO1 [Example 1, N-[3-[(4aR,6R,8aS)-2-Amino-6-(1,1-difluoroethyl)-4a,5,6,8-tetrahydro-4H-pyrano[3,4-d][1,3]thiazin-8a-yl]-4-fluoro-phenyl]-5-cyano-pyridine-2-carboxamide]
- IC50 [1]: 0.263 nM
- IC50 ([2]; Abeta 1-40 in conditioned media, mean ± standard deviation of the mean (0.0104), read-out: IC50 for SH-SY5YAPP695Wt A-beta (1-40) ELISA): 0.026 nM
- IC50 ([2]; Abeta 1-42 in conditioned media, mean ± standard deviation of the mean (0.0187), read-out: IC50 for SH-SY5YAPP695Wt A-beta (1-42) ELISA): 0.0313 nM
